Assay results from the supplement of paper PMC12350171.

Columns and labels:
Eubacterium rectale = experiment: IC25 growth inhibition; higher = less potent
Outline: (§1)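 Overnight monocultures grown in mGAM were moved into pre-reduced plates containing twofold drug dilutions, at a starting OD578 of 0.01 with 1% DMSO (or water). Plates were kept anaerobic and read hourly at OD578 in a plate reader, with at least three biological replicates. For each concentration, the median area under the growth curve was made monotonic, and IC25 was the lowest concentration whose median fell below a cutoff, reported as a tested interval. That cutoff was 0.75.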

Clostridium bolteae = experiment: IC25 growth inhibition; higher = less potent
Outline: as §1

Roseburia intestinalis = experiment: IC25 growth inhibition; higher = less potent
Outline: as §1

[1] = test system: Yersinia enterocolitica WA-314; experiment: IC25 growth inhibition; higher = less potent
Outline: as §1

Shigella flexneri = experiment: IC25 growth inhibition; higher = less potent
Outline: as §1

[2] = test system: Fusobacterium nucleatum subsp. Nucleatum; experiment: IC25 growth inhibition; higher = less potent
Outline: as §1

Ruminococcus gnavus = experiment: IC25 growth inhibition; higher = less potent
Outline: as §1

Dorea formicigenerans = experiment: IC25 growth inhibition; higher = less potent
Outline: as §1

Streptococcus salivarius = experiment: IC25 growth inhibition; higher = less potent
Outline: as §1

Parabacteroides merdae = experiment: IC25 growth inhibition; higher = less potent
Outline: as §1

[3] = test system: Streptococcus parasanguinis; experiment: IC25 growth inhibition; higher = less potent
Outline: as §1

Bacteroides uniformis = experiment: IC25 growth inhibition; higher = less potent
Outline: as §1

Escherichia coli ED1a = experiment: IC25 growth inhibition; higher = less potent
Outline: as §1

[4] = test system: Clostridium saccharolyticum; experiment: IC25 growth inhibition; higher = less potent
Outline: as §1

Vibrio cholerae = experiment: IC25 growth inhibition; higher = less potent
Outline: as §1

[5] = test system: Bacteroides thetaiotaomicron; experiment: IC25 growth inhibition; higher = less potent
Outline: as §1

Bacteroides vulgatus = experiment: IC25 growth inhibition; higher = less potent
Outline: as §1

Bacteroides fragilis NT = experiment: IC25 growth inhibition; higher = less potent
Outline: as §1

Coprococcus comes = experiment: IC25 growth inhibition; higher = less potent
Outline: as §1

Clostridium ramosum = experiment: IC25 growth inhibition; higher = less potent
Outline: as §1

Clostridium perfringens = experiment: IC25 growth inhibition; higher = less potent
Outline: as §1

[6] = test system: Salmonella enterica typhimurium; experiment: IC25 growth inhibition; higher = less potent
Outline: as §1

Collinsella aerofaciens = experiment: IC25 growth inhibition; higher = less potent
Outline: as §1

[7] = test system: Yersinia pseudotuberculosis; experiment: IC25 growth inhibition; higher = less potent
Outline: as §1

[8] = test system: Com21 synthetic gut community; experiment: community biomass OD578 after 24 h drug treatment relative to untreated (fraction of untreated control); higher = more community growth; conditions: community: Com21 (Com20 + E. coli ED1a)
Method: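 Com21 (Com20 plus E. coli ED1a) was treated with drug for 24 h under anaerobic conditions in mGAM. Community OD578 was then measured and normalised to untreated Com21; mean of 3 biological replicates.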

[9] = drug pretreatment concentration 2.5 µM
[10] = drug pretreatment concentration 5 µM
[11] = drug pretreatment concentration 10 µM
[12] = drug pretreatment concentration 20 µM
[13] = drug pretreatment concentration 40 µM
[14] = drug pretreatment concentration 80 µM
[15] = drug pretreatment concentration 160 µM
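Throughout, for IC25 growth inhibition: lowest concentration where monotonic median growth AUC falls below 0.75 of drug-free control.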

SMILES | IC25 growth inhibition (Eubacterium rectale) [µM] | IC25 growth inhibition (Clostridium bolteae) [µM] | IC25 growth inhibition (Roseburia intestinalis) [µM] | IC25 growth inhibition [1] [µM] | IC25 growth inhibition (Shigella flexneri) [µM] | IC25 growth inhibition [2] [µM] | IC25 growth inhibition (Ruminococcus gnavus) [µM] | IC25 growth inhibition (Dorea formicigenerans) [µM] | IC25 growth inhibition (Streptococcus salivarius) [µM] | IC25 growth inhibition (Parabacteroides merdae) [µM] | IC25 growth inhibition [3] [µM] | IC25 growth inhibition (Bacteroides uniformis) [µM] | IC25 growth inhibition (Escherichia coli ED1a) [µM] | IC25 growth inhibition [4] [µM] | IC25 growth inhibition (Vibrio cholerae) [µM] | IC25 growth inhibition [5] [µM] | IC25 growth inhibition (Bacteroides vulgatus) [µM] | IC25 growth inhibition (Bacteroides fragilis NT) [µM] | IC25 growth inhibition (Coprococcus comes) [µM] | IC25 growth inhibition (Clostridium ramosum) [µM] | IC25 growth inhibition (Clostridium perfringens) [µM] | IC25 growth inhibition [6] [µM] | IC25 growth inhibition (Collinsella aerofaciens) [µM] | IC25 growth inhibition [7] [µM] | community biomass OD578 [8, 9] | community biomass OD578 [8, 10] | community biomass OD578 [8, 11] | community biomass OD578 [8, 12] | community biomass OD578 [8, 13] | community biomass OD578 [8, 14] | community biomass OD578 [8, 15]
Clc1ccccc1C(c1ccccc1)(c1ccccc1)n1ccnc1 [Clotrimazole] | ≤ 10 | ≤ 80 | ≤ 10 | > 80 | > 80 | > 40 | ≤ 20 | ≤ 10 | > 80 | ≤ 40 | > 80 | ≤ 80 | > 40 | ≤ 40 | > 80 | ≤ 80 | ≤ 80 | ≤ 80 | ≤ 5 | ≤ 20 | > 80 | > 80 | ≤ 40 | > 20 | 0.969 | 0.989 | 1.03 | 1 | 0.976 | – | –
CC(=O)Oc1cccc2c1C(=O)c1c(OC(C)=O)cc(C(=O)O)cc1C2=O [Diacerein] | < 1.25 | ≤ 2.5 | < 1.25 | > 160 | > 160 | ≤ 10 | ≤ 10 | < 1.25 | ≤ 10 | < 1.25 | ≤ 10 | ≤ 5 | > 160 | ≤ 2.5 | ≤ 40 | ≤ 2.5 | ≤ 2.5 | ≤ 2.5 | ≤ 20 | ≤ 10 | ≤ 20 | > 160 | ≤ 2.5 | ≤ 160 | – | – | 0.936 | 0.913 | 0.728 | 0.337 | 0.284
O=c1oc2ccccc2c(O)c1Cc1c(O)c2ccccc2oc1=O [Dicumarol] | > 80 | > 80 | > 80 | > 80 | > 80 | ≤ 80 | ≤ 80 | > 80 | ≤ 20 | ≤ 80 | ≤ 10 | ≤ 20 | > 40 | ≤ 40 | ≤ 80 | ≤ 80 | ≤ 20 | ≤ 20 | > 80 | ≤ 40 | ≤ 20 | > 80 | > 80 | > 80 | 0.966 | 0.965 | 0.958 | 0.956 | 0.962 | – | –
C/C=C(/C(=C/C)c1ccc(O)cc1)c1ccc(O)cc1 [Dienestrol] | ≤ 20 | > 40 | ≤ 40 | > 40 | > 40 | > 40 | ≤ 5 | ≤ 10 | ≤ 40 | ≤ 40 | > 40 | ≤ 40 | > 40 | ≤ 40 | ≤ 40 | ≤ 20 | ≤ 40 | ≤ 10 | ≤ 10 | ≤ 40 | ≤ 20 | > 40 | > 40 | > 40 | 0.981 | 1.03 | 0.997 | 0.972 | 0.894 | – | –
C[C@]12CCC3=C4CCC(=O)C=C4CC[C@H]3[C@@H]1CC[C@@]2(O)CC#N [Dienogest] | > 80 | > 80 | > 80 | > 80 | > 80 | > 80 | > 80 | > 80 | > 80 | > 80 | > 80 | > 80 | > 80 | > 80 | > 80 | > 80 | > 80 | > 80 | > 80 | > 80 | > 80 | > 80 | > 80 | > 80 | – | 0.994 | 0.987 | 1.01 | 0.995 | 0.975 | –
COc1cccc2c1C(=O)c1c(O)c3c(c(O)c1C2=O)C[C@@](O)(C(=O)CO)C[C@@H]3O[C@H]1C[C@H](N)[C@H](O)[C@H](C)O1 [Doxorubicin] | ≤ 80 | ≤ 20 | ≤ 40 | > 160 | > 160 | > 160 | ≤ 160 | ≤ 20 | ≤ 10 | > 160 | ≤ 5 | > 160 | > 160 | ≤ 20 | > 160 | > 160 | > 160 | > 160 | ≤ 40 | ≤ 40 | ≤ 40 | > 160 | ≤ 10 | > 160 | – | – | 0.978 | 0.949 | 0.918 | 0.881 | 0.907
C[C@H]1c2cccc(O)c2C(=O)C2=C(O)[C@]3(O)C(=O)C(C(N)=O)=C(O)[C@@H](N(C)C)[C@@H]3[C@@H](O)[C@@H]21 [Doxycycline] | < 1.25 | < 1.25 | < 1.25 | ≤ 40 | ≤ 40 | < 1.25 | ≤ 40 | < 1.25 | ≤ 40 | ≤ 40 | < 1.25 | < 1.25 | < 1.25 | < 1.25 | < 1.25 | < 1.25 | < 1.25 | < 1.25 | ≤ 40 | < 1.25 | < 1.25 | > 160 | < 1.25 | ≤ 40 | – | – | 0.062 | 0.06 | 0.064 | 0.065 | 0.064
CN[C@H](CC(C)C)C(=O)N[C@H]1C(=O)N[C@@H](CC(N)=O)C(=O)N[C@H]2C(=O)N[C@H]3C(=O)N[C@H](C(=O)N[C@H](C(=O)O)c4cc(O)cc(O)c4-c4cc3ccc4O)[C@H](O)c3ccc(c(Cl)c3)Oc3cc2cc(c3O[C@@H]2O[C@H](CO)[C@@H](O)[C@H](O)[C@H]2O[C@H]2C[C@](C)(N)[C@H](O)[C@H](C)O2)Oc2ccc(cc2Cl)[C@H]1O [Vancomycin] | < 1.25 | < 1.25 | < 1.25 | > 160 | > 160 | ≤ 160 | < 1.25 | < 1.25 | < 1.25 | ≤ 10 | < 1.25 | ≤ 20 | > 160 | < 1.25 | > 160 | ≤ 40 | ≤ 2.5 | ≤ 10 | < 1.25 | ≤ 2.5 | < 1.25 | > 160 | < 1.25 | > 160 | – | – | – | – | – | – | –
